{"source": "patent US20200038398A1", "about": "“COMBINATION THERAPY WITH GLUTAMINASE INHIBITORS” (Calithera Biosciences, Inc., priority 2017, published 2020)", "key": {"[1]": {"system": "UWB1.289 ovarian cancer cell lines", "experiment": "Combination cell viability (CellTiter-Glo), CB-839 with niraparib", "format": "cell-based", "conditions": "FIG. 3a; combination with PARP inhibitor niraparib, various concentrations of CB-839, 6 days", "description": "(§1) Cells were treated with a dose titration of either CB-839, an anti-cancer agent, or a mixture thereof for 72 hours (for palbociclib or talazoparib) or 6 days (for niraparib) in growth media. At the end of the incubation, cell viability was measured using CellTiter-Glo as per manufacturer's protocol (Promega, Madison, Wis.). Cell proliferation for all compound treatments is represented with bar graphs, where luminescent output, Relative Light Units (RLU), correlates with viable cell number. Combination indices were calculated using CalcuSyn software (biosoft.com) and reported for individual mixtures of CB-839 and each agent."}, "[2]": {"system": "H1975 lung cancer cell lines", "experiment": "Combination cell viability (CellTiter-Glo), CB-839 with osimertinib", "format": "cell-based", "conditions": "FIG. 4b, various concentrations of CB-839, 72 hours", "description": "as §1, with “agent, osimertinib alone” for “agent,”, “of CB-839 and osimertinib” for “thereof”, “hours” for “hours (for palbociclib or talazoparib) or 6 days (for niraparib)”, “relative” for “viable”, “osimertinib.” for “each agent.”"}, "[3]": {"system": "HCC827 lung cancer cell lines", "experiment": "Combination cell viability (CellTiter-Glo), CB-839 with osimertinib", "format": "cell-based", "conditions": "FIG. 4a, various concentrations of CB-839, 72 hours", "description": "as §1, with “agent, osimertinib alone” for “agent,”, “of CB-839 and osimertinib” for “thereof”, “hours” for “hours (for palbociclib or talazoparib) or 6 days (for niraparib)”, “relative” for “viable”, “osimertinib.” for “each agent.”"}, "[4]": {"system": "HCC1569 (breast) cancer cell lines", "experiment": "Combination cell viability (CellTiter-Glo), CB-839 with palbociclib", "format": "cell-based", "conditions": "FIG. 1a; combination with CDK 4/6 inhibitor palbociclib, various concentrations of CB-839, 72 hours", "description": "as §1"}, "[5]": {"system": "estrogen receptor positive (ER+) breast cancer", "experiment": "Combination cell viability (CellTiter-Glo), CB-839 with palbociclib", "format": "cell-based", "conditions": "FIG. 2a; combination with CDK 4/6 inhibitor palbociclib, various concentrations of CB-839, 72 hours", "description": "as §1"}, "[6]": {"system": "MCF-7 breast adenocarcinoma cells", "experiment": "MCF-7 xenograft, CB-839 and palbociclib", "format": "in vivo", "conditions": "combination CB-839 200 mg/kg PO BID and palbociclib orally once daily; scid/bg mice; FIG. 2b", "description": "Female scid/bg mice were implanted subcutaneously with 17B-estradiol sustained release pellets on Day −1. The following day mice were implanted subcutaneously with 5×10^6 MCF-7 breast adenocarcinoma cells mixed 1:1 with matrigel. On Day 7 post-implant, mice were randomized into groups of n=10/group to receive the following: 1) Vehicle (25% hydroxypropyl-B-cyclodextrin) orally BID; 2) CB-839 at 200 mg/kg orally BID; 3) Palbociclib at 50 mg/kg orally once daily; or 4) CB-839 at 200 mg/kg PO BID and Palbociclib orally once daily. Tumors were measured with calipers three times per week and tumor volume calculated using the formula tumor volume (mm^3)=(a×b^2/2) where ‘b’ is the smallest diameter and ‘a’ is the largest perpendicular diameter. ****P<0.0001 (ANOVA) versus both monotherapies."}, "[7]": {"system": "HCC1395 breast cancer cell lines", "experiment": "Combination cell viability (CellTiter-Glo), CB-839 with talazoparib", "format": "cell-based", "conditions": "FIG. 3b; combination with PARP inhibitor talazoparib, various concentrations of CB-839, 72 hours", "description": "as §1"}, "P493-6 (myc “on”) cells": {"system": "P493-6 (myc “on”) cells", "experiment": "Cell Proliferation Assay", "format": "cell-based", "conditions": "72 hrs incubation", "description": "P493-6 (myc “on”) cells were maintained in growth media (RPMI-1640, 10% FBS, 2 mM glutamine, 100 units/ml Penicillin and 100 μg/ml streptomycin) at 37° C. with 5% CO2. For compound assay, P493-6 cells were plated in 96-well V-bottom plates on the day of compound addition in 50 μl of growth media at a cell density of 200,000 cells/ml (10,000 cells/well). Compounds were serially diluted in 100% DMSO at 200-times the final concentration. Compounds were diluted 100-fold into growth media and then 50 μl of this mixture was added to cell plates making the final concentration of DMSO 0.5%. Cells were incubated with compound for 72 hrs at 37° C. with 5% CO2 and analyzed for antiproliferative effects either by Cell Titer Glo (Promega) or FACS analysis using the Viacount (Millipore) kit on the Guava instrument."}}, "note": "Where two headings read alike, the source gives them in different places.", "data": [{"smiles": "O=C(Cc1cccc(OC(F)(F)F)c1)Nc1ccc(CCCCc2nnc(NC(=O)Cc3ccccn3)s2)nn1", "note": "[CB-839]", "values": [{"measurement": "synergy between CB-839 and niraparib", "setting": "[1]", "result": "synergy"}, {"measurement": "synergy between CB-839 and osimertinib", "setting": "[2]", "result": "synergy"}, {"measurement": "synergy between CB-839 and osimertinib", "setting": "[3]", "result": "synergy"}, {"measurement": "synergy between CB-839 and palbociclib", "setting": "[4]", "result": "synergy"}, {"measurement": "synergy between CB-839 and palbociclib", "setting": "[5]", "result": "synergy"}, {"measurement": "tumor volume, P (ANOVA) versus both monotherapies", "setting": "[6]", "result": "< 0.0001"}, {"measurement": "synergy between CB-839 and talazoparib", "setting": "[7]", "result": "synergy"}]}, {"smiles": "[2H]C([2H])(CCc1nnc(N)s1)C([2H])([2H])c1ccc(NC(=O)Cc2cccc(OC(F)(F)F)c2)nn1", "note": "[Compound 726]", "values": [{"measurement": "IC50", "setting": "P493-6 (myc “on”) cells; P493-6, read-out: Cell prolif P493 72h IC50", "result": 610, "unit": "nM"}]}, {"smiles": "[2H]C([2H])(CCc1nnc(NC(=O)Cc2ccccn2)s1)C([2H])([2H])c1ccc(NC(=O)Cc2cccc(OC(F)(F)F)c2)nn1", "note": "[Compound 727]", "values": [{"measurement": "IC50", "setting": "P493-6 (myc “on”) cells; read-out: Cell prolif P493 72h IC50", "result": 12, "unit": "nM"}]}]}
